Reference: patent US20240025884A1 (Dong-A ST Co., Ltd., priority 2022, published 2024)

The molecules below were run against GCN2 (Homo sapiens (Human), UniProt Q9P2K8) (assay: GCN2 Biochemical Assay (TR-FRET, GFP-eIF2S1 substrate phosphorylation)). Settings: read-out: IC50 (GCN2 Inhibitory Activity).
Procedure, shortened: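 TR-FRET readout (Ex 340, Em 490/520 nm) after 2–3 h with Tb-labelled phospho-eIF2S1 antibody in stop mix, following a 70 min room-temperature kinase step. Reaction: in-house GCN2, GFP-eIF2S1, ATP, tRNA in Tris pH 7.5 (2× stocks 1.6 nM, 50 nM, 0.2 mM); compounds tested at 10 concentrations, with a phospho-substrate artifact counter-plate.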

GCN2, sequence (Q9P2K8 whole entry): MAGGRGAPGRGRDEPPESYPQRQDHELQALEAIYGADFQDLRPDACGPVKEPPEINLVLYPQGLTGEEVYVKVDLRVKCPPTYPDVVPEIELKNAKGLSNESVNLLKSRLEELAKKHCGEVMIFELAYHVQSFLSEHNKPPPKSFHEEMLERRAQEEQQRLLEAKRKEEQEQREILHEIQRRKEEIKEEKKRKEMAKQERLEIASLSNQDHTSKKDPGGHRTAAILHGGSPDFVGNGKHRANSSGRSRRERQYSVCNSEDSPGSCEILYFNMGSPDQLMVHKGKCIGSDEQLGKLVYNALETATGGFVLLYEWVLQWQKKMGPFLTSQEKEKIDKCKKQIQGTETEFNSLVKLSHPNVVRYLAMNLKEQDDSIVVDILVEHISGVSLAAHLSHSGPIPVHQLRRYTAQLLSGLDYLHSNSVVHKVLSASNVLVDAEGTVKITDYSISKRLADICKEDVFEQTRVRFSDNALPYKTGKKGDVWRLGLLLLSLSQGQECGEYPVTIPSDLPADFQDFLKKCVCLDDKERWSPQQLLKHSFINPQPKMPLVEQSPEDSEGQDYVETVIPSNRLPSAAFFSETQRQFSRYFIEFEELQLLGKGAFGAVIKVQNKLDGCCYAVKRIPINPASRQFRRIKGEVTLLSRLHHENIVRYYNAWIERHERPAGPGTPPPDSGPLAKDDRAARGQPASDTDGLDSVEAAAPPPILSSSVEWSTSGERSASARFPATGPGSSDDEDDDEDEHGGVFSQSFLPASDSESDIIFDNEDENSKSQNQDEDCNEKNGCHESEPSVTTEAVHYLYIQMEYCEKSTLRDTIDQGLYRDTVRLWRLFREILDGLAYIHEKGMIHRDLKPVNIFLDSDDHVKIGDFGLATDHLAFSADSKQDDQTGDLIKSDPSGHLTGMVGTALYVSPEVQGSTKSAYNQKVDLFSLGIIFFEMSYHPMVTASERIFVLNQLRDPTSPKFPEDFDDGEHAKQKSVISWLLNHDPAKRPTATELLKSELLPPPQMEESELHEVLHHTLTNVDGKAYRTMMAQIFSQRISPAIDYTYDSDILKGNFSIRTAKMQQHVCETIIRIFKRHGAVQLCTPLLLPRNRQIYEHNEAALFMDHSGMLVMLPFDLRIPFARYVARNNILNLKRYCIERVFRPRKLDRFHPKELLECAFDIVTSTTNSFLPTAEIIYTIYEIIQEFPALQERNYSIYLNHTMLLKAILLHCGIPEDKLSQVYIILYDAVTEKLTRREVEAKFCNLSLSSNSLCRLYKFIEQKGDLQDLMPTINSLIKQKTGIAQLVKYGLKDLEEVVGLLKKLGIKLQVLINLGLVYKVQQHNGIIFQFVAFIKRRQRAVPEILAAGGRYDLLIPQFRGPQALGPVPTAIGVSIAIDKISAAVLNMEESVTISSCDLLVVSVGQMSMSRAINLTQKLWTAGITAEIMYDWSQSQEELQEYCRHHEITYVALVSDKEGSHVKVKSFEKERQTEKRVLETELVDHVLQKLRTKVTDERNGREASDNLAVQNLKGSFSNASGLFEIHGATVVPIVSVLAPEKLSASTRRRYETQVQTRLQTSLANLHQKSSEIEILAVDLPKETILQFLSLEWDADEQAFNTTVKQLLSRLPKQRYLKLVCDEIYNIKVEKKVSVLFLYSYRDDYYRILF

SMILES	IC50 [nM]
Cc1cnc(Nc2cc(C)n(C)n2)nc1-c1c[nH]c2c(NC(=O)CN3CC[C@H](Oc4ncc(F)c(N5CCCCC5)n4)C3)cccc12 [Example 187, (S)-N-(3-(2-((1,5-dimethyl-1H-pyrazol-3-yl)amino)-5-methylpyrimidin-4-yl)-1H-indol-7-yl)-2-(3-((5-fluoro-4-(piperidin-1-yl)pyrimidin-2-yl)oxy)pyrrolidin-1-yl)acetamide]	< 10
Cc1cnc(Nc2cc(C)n(C)n2)nc1-c1c[nH]c2c(NC(=O)CN3CC[C@H](Oc4ncc(F)c(N5CCOCC5)n4)C3)cccc12 [Example 188, (S)-N-(3-(2-((1,5-dimethyl-1H-pyrazol-3-yl)amino)-5-methylpyrimidin-4-yl)-1H-indol-7-yl)-2-(3-((5-fluoro-4-morpholinopyrimidin-2-yl)oxy)pyrrolidin-1-yl)acetamide]	< 10
Cc1cnc(Nc2cc(C)n(C)n2)nc1-c1c[nH]c2c(NC(=O)CN3CC[C@H](Oc4ncc(F)c(N5CCSCC5)n4)C3)cccc12 [Example 189, (S)-N-(3-(2-((1,5-dimethyl-1H-pyrazol-3-yl)amino)-5-methylpyrimidin-4-yl)-1H-indol-7-yl)-2-(3-((5-fluoro-4-thiomorpholinopyrimidin-2-yl)oxy)pyrrolidin-1-yl)acetamide]	< 10
Cc1cnc(Nc2cc(C)n(C)n2)nc1-c1c[nH]c2c(NC(=O)CN3CC[C@H](Oc4ncc(F)c(N5CCN(C)CC5)n4)C3)cccc12 [Example 190, (S)-N-(3-(2-((1,5-dimethyl-1H-pyrazol-3-yl)amino)-5-methylpyrimidin-4-yl)-1H-indol-7-yl)-2-(3-((5-fluoro-4-(4-methylpiperazin-1-yl)pyrimidin-2-yl)oxy)pyrrolidin-1-yl)acetamide]	< 10
Cc1cnc(O[C@H]2CCN(CC(=O)Nc3cccc4c(-c5nc(Nc6cc(C)n(C)n6)ncc5C)c[nH]c34)C2)nc1NC1CC1 [Example 191, (S)-2-(3-((4-(cyclopropylamino)-5-methylpyrimidin-2-yl)oxy)pyrrolidin-1-yl)-N-(3-(2-((1,5-dimethyl-1H-pyrazol-3-yl)amino)-5-methylpyrimidin-4-yl)-1H-indol-7-yl)acetamide]	< 10
Cc1cnc(Nc2cc(C)n(C)n2)nc1-c1c[nH]c2c(NC(=O)CN3CC[C@H](Oc4ccnc(N)n4)C3)cccc12 [Example 192, (S)-2-(3-((2-aminopyrimidin-4-yl)oxy)pyrrolidin-1-yl)-N-(3-(2-((1,5-dimethyl-1H-pyrazol-3-yl)amino)-5-methylpyrimidin-4-yl)-1H-indol-7-yl)acetamide]	< 10
CSc1nccc(O[C@H]2CCN(CC(=O)Nc3cccc4c(-c5nc(Nc6cc(C)n(C)n6)ncc5C)c[nH]c34)C2)n1 [Example 193, (S)-N-(3-(2-((1,5-dimethyl-1H-pyrazol-3-yl)amino)-5-methylpyrimidin-4-yl)-1H-indol-7-yl)-2-(3-((2-(methylthio)pyrimidin-4-yl)oxy)pyrrolidin-1-yl)acetamide]	< 10
COc1nccc(O[C@H]2CCN(CC(=O)Nc3cccc4c(-c5nc(Nc6cc(C)n(C)n6)ncc5C)c[nH]c34)C2)n1 [Example 194, (S)-N-(3-(2-((1,5-dimethyl-1H-pyrazol-3-yl)amino)-5-methylpyrimidin-4-yl)-1H-indol-7-yl)-2-(3-((2-methoxypyrimidin-4-yl)oxy)pyrrolidin-1-yl)acetamide]	< 10
Cc1cnc(Nc2cc(C)n(C)n2)nc1-c1c[nH]c2c(NC(=O)CN3CC[C@H](Oc4ccnc(OCc5ccccc5)n4)C3)cccc12 [Example 195, (S)-2-(3-((2-(benzyloxy)pyrimidin-4-yl)oxy)pyrrolidin-1-yl)-N-(3-(2-((1,5-dimethyl-1H-pyrazol-3-yl)amino)-5-methylpyrimidin-4-yl)-1H-indol-7-yl)acetamide]	10 to 100
CC(=O)Nc1nccc(O[C@H]2CCN(CC(=O)Nc3cccc4c(-c5nc(Nc6cc(C)n(C)n6)ncc5C)c[nH]c34)C2)n1 [Example 196, (S)-2-(3-((2-acetamidopyrimidin-4-yl)oxy)pyrrolidin-1-yl)-N-(3-(2-((1,5-dimethyl-1H-pyrazol-3-yl)amino)-5-methylpyrimidin-4-yl)-1H-indol-7-yl)acetamide]	< 10

The next lines start with the values.

IC50 [nM]	SMILES
< 10	CNc1nccc(O[C@H]2CCN(CC(=O)Nc3cccc4c(-c5nc(Nc6cc(C)n(C)n6)ncc5C)c[nH]c34)C2)n1 [Example 197, (S)-N-(3-(2-((1,5-dimethyl-1H-pyrazol-3-yl)amino)-5-methylpyrimidin-4-yl)-1H-indol-7-yl)-2-(3-((2-(methylamino)pyrimidin-4-yl)oxy)pyrrolidin-1-yl)acetamide]
< 10	Cc1cnc(Nc2cc(C)n(C)n2)nc1-c1c[nH]c2c(NC(=O)CN3CC[C@H](Oc4ccnc(NCC(F)(F)F)n4)C3)cccc12 [Example 198, (S)-N-(3-(2-((1,5-dimethyl-1H-pyrazol-3-yl)amino)-5-methylpyrimidin-4-yl)-1H-indol-7-yl)-2-(3-((2-((2,2,2-trifluoroethyl)amino)pyrimidin-4-yl)oxy)pyrrolidin-1-yl)acetamide]
< 10	Cc1cnc(Nc2cc(C)n(C)n2)nc1-c1c[nH]c2c(NC(=O)CN3CC[C@H](Oc4ccnc(NCC(C)(F)F)n4)C3)cccc12 [Example 199, (S)-2-(3-((2-((2,2-difluoropropyl)amino)pyrimidin-4-yl)oxy)pyrrolidin-1-yl)-N-(3-(2-((1,5-dimethyl-1H-pyrazol-3-yl)amino)-5-methylpyrimidin-4-yl)-1H-indol-7-yl)acetamide]
< 10	Cc1cnc(Nc2cc(C)n(C)n2)nc1-c1c[nH]c2c(NC(=O)CN3CC[C@H](Oc4ccnc(NCC(F)F)n4)C3)cccc12 [Example 200, (S)-2-(3-((2-((2,2-difluoroethyl)amino)pyrimidin-4-yl)oxy)pyrrolidin-1-yl)-N-(3-(2-((1,5-dimethyl-1H-pyrazol-3-yl)amino)-5-methylpyrimidin-4-yl)-1H-indol-7-yl)acetamide]
10 to 100	Cc1cnc(Nc2cc(C)n(C)n2)nc1-c1c[nH]c2c(NC(=O)CN3CC[C@H](Oc4ccnc(NC(C)C(F)(F)F)n4)C3)cccc12 (stereo partly drawn) [Example 201, N-(3-(2-((1,5-dimethyl-1H-pyrazol-3-yl)amino)-5-methylpyrimidin-4-yl)-1H-indol-7-yl)-2-((3S)-3-((2-((1,1,1-trifluoropropan-2-yl)amino)pyrimidin-4-yl)oxy)pyrrolidin-1-yl)acetamide]
< 10	Cc1cnc(Nc2cc(C)n(C)n2)nc1-c1c[nH]c2c(NC(=O)CN3CC[C@H](Oc4ccnc(NCCF)n4)C3)cccc12 [Example 202, (S)-N-(3-(2-((1,5-dimethyl-1H-pyrazol-3-yl)amino)-5-methylpyrimidin-4-yl)-1H-indol-7-yl)-2-(3-((2-((2-fluoroethyl)amino)pyrimidin-4-yl)oxy)pyrrolidin-1-yl)acetamide]
< 10	CCNc1nccc(O[C@H]2CCN(CC(=O)Nc3cccc4c(-c5nc(Nc6cc(C)n(C)n6)ncc5C)c[nH]c34)C2)n1 [Example 203, (S)-N-(3-(2-((1,5-dimethyl-1H-pyrazol-3-yl)amino)-5-methylpyrimidin-4-yl)-1H-indol-7-yl)-2-(3-((2-(ethylamino)pyrimidin-4-yl)oxy)pyrrolidin-1-yl)acetamide]
< 10	CCCNc1nccc(O[C@H]2CCN(CC(=O)Nc3cccc4c(-c5nc(Nc6cc(C)n(C)n6)ncc5C)c[nH]c34)C2)n1 [Example 204, (S)-N-(3-(2-((1,5-dimethyl-1H-pyrazol-3-yl)amino)-5-methylpyrimidin-4-yl)-1H-indol-7-yl)-2-(3-((2-(propylamino)pyrimidin-4-yl)oxy)pyrrolidin-1-yl)acetamide]
< 10	CCCCNc1nccc(O[C@H]2CCN(CC(=O)Nc3cccc4c(-c5nc(Nc6cc(C)n(C)n6)ncc5C)c[nH]c34)C2)n1 [Example 205, (S)-2-(3-((2-(butylamino)pyrimidin-4-yl)oxy)pyrrolidin-1-yl)-N-(3-(2-((1,5-dimethyl-1H-pyrazol-3-yl)amino)-5-methylpyrimidin-4-yl)-1H-indol-7-yl)acetamide]
< 10	Cc1cnc(Nc2cc(C)n(C)n2)nc1-c1c[nH]c2c(NC(=O)CN3CC[C@H](Oc4ccnc(NCCCO)n4)C3)cccc12 [Example 206, (S)-N-(3-(2-((1,5-dimethyl-1H-pyrazol-3-yl)amino)-5-methylpyrimidin-4-yl)-1H-indol-7-yl)-2-(3-((2-((3-hydroxypropyl)amino)pyrimidin-4-yl)oxy)pyrrolidin-1-yl)acetamide]
< 10	Cc1cnc(Nc2cc(C)n(C)n2)nc1-c1c[nH]c2c(NC(=O)CN3CC[C@H](Oc4ccnc(NC5CC5)n4)C3)cccc12 [Example 207, (S)-2-(3-((2-(cyclopropylamino)pyrimidin-4-yl)oxy)pyrrolidin-1-yl)-N-(3-(2-((1,5-dimethyl-1H-pyrazol-3-yl)amino)-5-methylpyrimidin-4-yl)-1H-indol-7-yl)acetamide]
< 10	Cc1cnc(Nc2cc(C)n(C)n2)nc1-c1c[nH]c2c(NC(=O)CN3CC[C@H](Oc4ccnc(NC5CCC5)n4)C3)cccc12 [Example 208, (S)-2-(3-((2-(cyclobutylamino)pyrimidin-4-yl)oxy)pyrrolidin-1-yl)-N-(3-(2-((1,5-dimethyl-1H-pyrazol-3-yl)amino)-5-methylpyrimidin-4-yl)-1H-indol-7-yl)acetamide]
10 to 100	Cc1cnc(Nc2cc(C)n(C)n2)nc1-c1c[nH]c2c(NC(=O)CN3CC[C@H](Oc4ccnc(NC5CCCC5)n4)C3)cccc12 [Example 209, (S)-2-(3-((2-(cyclopentylamino)pyrimidin-4-yl)oxy)pyrrolidin-1-yl)-N-(3-(2-((1,5-dimethyl-1H-pyrazol-3-yl)amino)-5-methylpyrimidin-4-yl)-1H-indol-7-yl)acetamide]
10 to 100	Cc1cnc(Nc2cc(C)n(C)n2)nc1-c1c[nH]c2c(NC(=O)CN3CC[C@H](Oc4ccnc(NC5CCCCC5)n4)C3)cccc12 [Example 210, (S)-2-(3-((2-(cyclohexylamino)pyrimidin-4-yl)oxy)pyrrolidin-1-yl)-N-(3-(2-((1,5-dimethyl-1H-pyrazol-3-yl)amino)-5-methylpyrimidin-4-yl)-1H-indol-7-yl)acetamide]
